Results from US20250049970A1, “DLL3 TARGETING PEPTIDES AND CONSTRUCTS THEREOF” (MARIANA ONCOLOGY INC., priority 2023, published 2025).
Where a SMILES comes first, the peptide text is derived from it. Bridges are numbered along the chain shown (N, C = ends). [ ]: non-standard residue; d: D form. The star is where a group is joined. DOTA = O=C(O)CN1CCN(CC(=O)O)CCN(CC(=O)*)CCN(CC(=O)O)CC1; 2Nal = N[C@@H](Cc1ccc2ccccc2c1)C(=O)O; Gly(4-THP) = N[C@H](C(=O)O)C1CCOCC1; aIle = CC[C@@H](C)[C@H](N)C(=O)O; Chg = N[C@H](C(=O)O)C1CCCCC1; NMeNle = CCCC[C@H](NC)C(=O)O

Columns and labels:
[1] = test system: CT26.DLL3 cells; assay: Cell binding (total uptake) of [177Lu]Lu-labeled peptide, CT26.DLL3 cells; type: cell-based; settings: 1 h, 37° C.
Method: (§1) [^177Lu]LuCl3 was received from venders in HCl solution. For every mCi of [^177Lu]LuCl3 added to the reaction vial (1.5 mL Eppendorf vial), ammonium acetate buffer (0.2 M, pH 4.9, 100 μL, containing 1% w/v ascorbic acid and 6% v/v ethanol) and peptide conjugate (1 nmol; also referred to herein as “chelator-peptides”) was added. The pH of the solution was determined to be approximately 5 by using pH strips. The reaction vial was incubated at 80° C., 700 RPM for 17-20 minutes. A sample from the reaction was analyzed by RP-HPLC using an Agilent Infinity II 1260 HPLC to determine reaction completion and radiochemical purity of [^177Lu]Lu-chelator-peptides. HPLC conditions: Waters XBridge BEH C18 Column, 130A, 3.5 μm, 4.6 mm×250 mm; mobile phase: Solvent A=water (with 0.1% formic acid), solvent B=acetonitrile (with 0.1% formic acid). Gradients: 25-45% B in 10 minutes, 45-65% B in 12 minutes, 65-90% in 6 minutes at a flow rate of 0.5 mL/minutes Required amounts of the product was formulated in 1% PBSA for cell studies.
(§2) The study was conducted using SHP-77, CT26.WT, CT26.DLL3, and HEK293.DLL3 cells (Table 9)
(§3) Adherent cell studies: The cells were cultured in appropriate culture media (20 mL) in tissue culture treated T150 flasks at 37° C. and 5% C02. Adherent cells were detached (60-70% confluent) using 5 mL Versene at 37° C. for 3 minutes. After confirming the viability using countess and count of detached cells using Trypan blue, the cells were centrifuged at 4° C. for 5 minutes (1,000 rpm). The cell pellet obtained was washed once with PBS and resuspended in 1% PBSA to obtain the desired cell concentration (5-25 million cells/mL).
(§4) Cell numbers used for the assay were in the range of 5 million cells/condition-25 million cells/condition.
(§5) Total uptake: Cells were incubated with 300 μL (0.8 μCi) of the incubation buffer (containing radiolabeled peptide [^177Lu]Lu-test peptide) for 1 hour at 37° C. (Table 10). Post incubation, the cells were pelleted and washed 2 times using cold PBS+1% BSA. The supernatant and washes were combined and counted together as “unbound fraction” in a gamma counter. The cells were then resuspended in 300 μL of 1% PBS+1% BSA and counted in the gamma counter as “bound fraction”.
(§6) In these Tables, “A” represents % s ≤25; “B” represents 25 <% ≤50; “C” represents % >50.

[2] = test system: CT26.DLL3 cells; assay: Internalization of [177Lu]Lu-labeled peptide, CT26.DLL3 cells; type: cell-based; settings: 1 h, 37° C.
Method: as §1, §2, §3, §4
(§7) Internalization: The resuspended cells in 300 μL of 1% PBSA and counted in the gamma counter as “bound fraction” were collected in 1.5 mL Eppendorf tube and pelleted. The pelleted cells were incubated with 300 μL of 50 mM Glycine pH=2.5 for 3 minutes and then pelleted discarding the supernatant. This process was repeated one more time. The pelleted cells were washed with 300 μL of cold 1% PBSA and then resuspended in 300 μl 0.3M NaOH. This was counted in the gamma counter as “internalized fraction”.
as §6

[3] = test system: SHP-77 cells; assay: Cell binding (total uptake) of [177Lu]Lu-labeled peptide, SHP-77 cells; type: cell-based; settings: 1 h, 37° C.
Method: as §1, §2, §3
as §3, with “Suspension” for “Adherent”, “CO2.” for “C02. Adherent cells were detached (60-70% confluent) using 5 mL Versene at 37° C. for 3 minutes.”, “viability” for “viability using countess”
as §4, §5, §6

[4] = test system: SHP-77 cells; assay: Internalization of [177Lu]Lu-labeled peptide, SHP-77 cells; type: cell-based; settings: 1 h, 37° C.
Method: as §1, §2, §3
as §3, with “Suspension” for “Adherent”, “CO2.” for “C02. Adherent cells were detached (60-70% confluent) using 5 mL Versene at 37° C. for 3 minutes.”, “viability” for “viability using countess”
as §4, §7, §6

[5] = test system: nude mice bearing SHP-77 tumors; assay: Ex vivo biodistribution of radiolabeled peptides (% IA/g) in nude mice bearing SHP-77 tumors; settings: [177Lu]Lu labelling, 24 hours post-injection, intravenous
Procedure, shortened: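 [177Lu]Lu-peptides were given as an IV tail-vein bolus once tumors reached 200-400 mm^3. Injected activity was set per mouse from syringe dose-calibrator readings. At set time points, tissues were weighed and gamma-counted, and counts were decay-corrected to injection and expressed as % IA/g.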

[6] = biological target: T1, DLL3 (Homo sapiens, UniProt Q9NYJ7); assay: SPR KD, biotinylated human DLL3 on streptavidin chip (Table 8); parameters: biotin (biotinylated); settings: biotinylated human DLL3 on streptavidin sensor chip, 25° C., 1:1 binding model; read-out: SPR KD
T1 sequence (Q9NYJ7 27-618): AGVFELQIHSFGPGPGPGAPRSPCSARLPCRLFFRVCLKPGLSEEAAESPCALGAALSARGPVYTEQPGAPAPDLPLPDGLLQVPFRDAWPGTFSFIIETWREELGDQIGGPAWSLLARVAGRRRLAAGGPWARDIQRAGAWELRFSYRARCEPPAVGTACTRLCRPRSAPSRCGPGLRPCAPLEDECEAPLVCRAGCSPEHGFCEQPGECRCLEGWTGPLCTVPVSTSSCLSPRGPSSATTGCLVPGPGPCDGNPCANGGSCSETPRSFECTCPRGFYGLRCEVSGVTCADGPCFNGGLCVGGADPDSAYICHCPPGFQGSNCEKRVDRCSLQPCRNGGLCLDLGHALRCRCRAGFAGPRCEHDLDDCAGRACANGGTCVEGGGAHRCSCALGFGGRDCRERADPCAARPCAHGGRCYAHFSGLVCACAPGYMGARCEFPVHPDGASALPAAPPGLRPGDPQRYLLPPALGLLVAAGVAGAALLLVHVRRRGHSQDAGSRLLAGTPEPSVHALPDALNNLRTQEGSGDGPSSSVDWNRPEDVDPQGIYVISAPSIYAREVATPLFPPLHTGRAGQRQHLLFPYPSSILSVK
Description: Biotinylated target ligand human DLL3 was immobilized on a streptavidin sensor chip. A reference surface was set up for nonspecific binding and refractive index changes. […] Sensorgram curves were fitted with 1:1 binding model, and affinity and kinetic parameters were obtained using Biacore Insight evaluation 4.0. software.

| Compound | % Binding [1] | % Internalization (out of bound fraction) [2] | % Binding [3] | % Internalization (out of bound fraction) [4] | kidney uptake (% IA/g) [5] | tumor uptake (% IA/g) [5] | Kd [6] |
| --- | --- | --- | --- | --- | --- | --- | --- |
| CC(=O)N[C@@H](Cc1c[nH]c2ccccc12)C(=O)N[C@H](C(=O)N[C@H](C(=O)N[C@H]1CSSC[C@@H](C(=O)N[C@@H](Cc2c[nH]c3ccccc23)C(=O)N2CCC[C@H]2C(N)=O)NC(=O)[C@H](CC(=O)O)NC(=O)[C@H](CCCCNC(=O)CN2CCN(CC(=O)O)CCN(CC(=O)O)CCN(CC(=O)O)CC2)NC(=O)[C@H](Cc2ccc3ccccc3c2)NC(=O)[C@H](CC(N)=O)NC(=O)[C@H](CC(N)=O)NC1=O)C1CCOCC1)[C@@H](C)O [compound 317, Ac-W-T-(THPG)-C(3)-N-N-(2Nal)-Lys(DOTA)-D-C(3)-W-P-CONH2] (Ac-WT[Gly(4-THP)]CNN[2Nal]K(DOTA)DCWP-NH2; disulfide 4-10) | A (% s ≤25) | C (% >50) | A (% s ≤25) | B (25 <% ≤50) | D (“D” represents % IA/g > 10 in kidney) | A (“A” represents 0 < % IA/g ≤ 5 in tumor) | < 1 nM |
| CC(=O)N[C@@H](Cc1c[nH]c2ccccc12)C(=O)N[C@H](C(=O)N[C@H](C(=O)N[C@H]1CSSC[C@@H](C(=O)N[C@@H](Cc2c[nH]c3ccccc23)C(=O)N2CCC[C@H]2C(N)=O)NC(=O)[C@H](CC(=O)O)NC(=O)[C@H](CCCCNC(=O)CN2CCN(CC(=O)O)CCN(CC(=O)O)CCN(CC(=O)O)CC2)NC(=O)[C@H](Cc2ccc3ccccc3c2)NC(=O)[C@H](CC(N)=O)NC(=O)[C@H](CC(N)=O)NC1=O)C1CCCCC1)[C@@H](C)O [compound 318, Ac-W-T-(Chg)-C(3)-N-N-(2Nal)-Lys(DOTA)-D-C(3)-W-P-CONH2] (Ac-WT[Chg]CNN[2Nal]K(DOTA)DCWP-NH2; disulfide 4-10) | A (% s ≤25) | C (% >50) | B (25 <% ≤50) | C (% >50) | D (“D” represents % IA/g > 10 in kidney) | A (“A” represents 0 < % IA/g ≤ 5 in tumor) | < 1 nM |
| CCCC[C@@H](C(=O)N[C@H]1CSSC[C@@H](C(=O)N[C@@H](Cc2c[nH]c3ccccc23)C(=O)N2CCC[C@H]2C(N)=O)NC(=O)[C@H](CC(=O)O)NC(=O)[C@H](CCCCNC(=O)CN2CCN(CC(=O)O)CCN(CC(=O)O)CCN(CC(=O)O)CC2)NC(=O)[C@H](Cc2ccc3ccccc3c2)NC(=O)[C@H](CC(N)=O)NC(=O)[C@H](CC(N)=O)NC1=O)N(C)C(=O)[C@@H](NC(=O)[C@H](Cc1c[nH]c2ccccc12)NC(C)=O)[C@@H](C)O [compound 320, Ac-W-T-(NMe-Nle)-C(3)-N-N-(2Nal)-Lys(DOTA)-D-C(3)-W-P-CONH2] (Ac-WT[NMeNle]CNN[2Nal]K(DOTA)DCWP-NH2; disulfide 4-10) | A (% s ≤25) | B (25 <% ≤50) | A (% s ≤25) | B (25 <% ≤50) | D (“D” represents % IA/g > 10 in kidney) | A (“A” represents 0 < % IA/g ≤ 5 in tumor) | < 1 nM |
| CC[C@@H](C)[C@H](NC(=O)[C@@H](NC(=O)[C@H](Cc1c[nH]c2ccccc12)NC(C)=O)[C@@H](C)O)C(=O)N[C@H]1CSSC[C@@H](C(=O)N[C@@H](Cc2c[nH]c3ccccc23)C(=O)N2CCC[C@H]2C(N)=O)NC(=O)[C@H](CC(=O)O)NC(=O)[C@H](CCCCNC(=O)CN2CCN(CC(=O)O)CCN(CC(=O)O)CCN(CC(=O)O)CC2)NC(=O)[C@H](Cc2ccc3ccccc3c2)NC(=O)[C@H](CC(N)=O)NC(=O)[C@H](CC(N)=O)NC1=O [compound 322, Ac-W-T-(Allo-Ile)-C(3)-N-N-(2Nal)-Lys(DOTA)-D-C(3)-W-P-CONH2] (Ac-WT[aIle]CNN[2Nal]K(DOTA)DCWP-NH2; disulfide 4-10) | A (% s ≤25) | C (% >50) | A (% s ≤25) | B (25 <% ≤50) | D (“D” represents % IA/g > 10 in kidney) | A (“A” represents 0 < % IA/g ≤ 5 in tumor) | < 1 nM |
